System: KRAS-mutant PDC multicell tumor spheroid viability
Experiment: Anticancer human tumor 521955-158-R2-J5-PDC patient-derived pancreatic carcinoma cell line growth inhibition [KRAS2]
Conditions: for viability, T/C: stronger effect = lower value
Procedure, shortened: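 KRAS-mutant tumor cells were grown as spheroids with HUVEC endothelial cells and human MSCs as stroma. Targeted agents were tested alone and with KRAS pathway inhibitors. Doses started at or near clinical Cmax, or 10 microM, descending half-log.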

[1] = curve of first compound, second compound 0.1 µM
[2] = curve of first compound, second compound 0.316 µM
[3] = curve of first compound, second compound 1 µM
[4] = curve of first compound, second compound 3.16 µM
[5] = curve of first compound, second compound 10 µM
[6] = second compound 0.1 µM, first compound 0.0316 µM
[7] = second compound 0.1 µM, first compound 0.1 µM
[8] = second compound 0.1 µM, first compound 0.316 µM
[9] = second compound 0.1 µM, first compound 1 µM
[10] = second compound 0.1 µM, first compound 3.16 µM
[11] = second compound 0.1 µM, first compound 10 µM
[12] = second compound 0.316 µM, first compound 0.0316 µM
[13] = second compound 0.316 µM, first compound 0.1 µM
[14] = second compound 0.316 µM, first compound 0.316 µM
[15] = second compound 0.316 µM, first compound 1 µM
[16] = second compound 0.316 µM, first compound 3.16 µM
[17] = second compound 0.316 µM, first compound 10 µM
[18] = second compound 1 µM, first compound 0.0316 µM
[19] = second compound 1 µM, first compound 0.1 µM
[20] = second compound 1 µM, first compound 0.316 µM
[21] = second compound 1 µM, first compound 1 µM
[22] = second compound 1 µM, first compound 3.16 µM
[23] = second compound 1 µM, first compound 10 µM
[24] = second compound 3.16 µM, first compound 0.0316 µM
[25] = second compound 3.16 µM, first compound 0.1 µM
[26] = second compound 3.16 µM, first compound 0.316 µM
[27] = second compound 3.16 µM, first compound 1 µM
[28] = second compound 3.16 µM, first compound 3.16 µM
[29] = second compound 3.16 µM, first compound 10 µM
[30] = second compound 10 µM, first compound 0.0316 µM
[31] = second compound 10 µM, first compound 0.1 µM
[32] = second compound 10 µM, first compound 0.316 µM
[33] = second compound 10 µM, first compound 1 µM
[34] = second compound 10 µM, first compound 3.16 µM
[35] = second compound 10 µM, first compound 10 µM
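Further: viability read after seven days of drug exposure.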

Compound `Cn1nccc1Nc1nccc(-c2cc3c(s2)C(C)(C)N(CCN2CCOCC2)C3=O)n1` + COc1cc2nc(C)nc(NC(C)c3cc(N)cc(C(F)(F)F)c3)c2cc1OC1CCOC1 has an IC50 [1] of 355 nM, an IC50 [2] of 522 nM and an IC50 [3] of 574 nM. It also gave an IC50 [4] of 510 nM, an IC50 [5] of 104 nM and a viability, T/C [6] of 92.5%. It also gave a viability, T/C [7] of 77.9%, a viability, T/C [8] of 47.1% and a viability, T/C [9] of 36.8%. It also gave a viability, T/C [10] of 24.6%, a viability, T/C [11] of 17.6% and a viability, T/C [12] of 104%. It also gave a viability, T/C [13] of 83.7%, a viability, T/C [14] of 57.2% and a viability, T/C [15] of 40%. The viability, T/C [16] was 23.8%, the viability, T/C [17] was 16.6% and the viability, T/C [18] was 83.2%. The viability, T/C [19] was 87.6%, the viability, T/C [20] was 62% and the viability, T/C [21] was 37%. For the same compound, the viability, T/C [22] was 21.2%, the viability, T/C [23] was 13.9% and the viability, T/C [24] was 86%. For the same compound, the viability, T/C [25] was 75.3%, the viability, T/C [26] was 60.8% and the viability, T/C [27] was 36.1%. It also gave a viability, T/C [28] of 17.4%, a viability, T/C [29] of 8.1% and a viability, T/C [30] of 76.8%. The viability, T/C [31] was 51%, the viability, T/C [32] was 16.8% and the viability, T/C [33] was 4.05%. It also gave a viability, T/C [34] of 1.96% and a viability, T/C [35] of 0.81%.
`CC(C)n1nc(-c2ccc3oc(N)nc3c2)c2c(N)ncnc21` was tested, and the viability, T/C (compound 0.000316 µM) was 101% [middle of 5 runs], the viability, T/C (compound 0.001 µM) was 87.6% [middle of 5 runs] and the viability, T/C (compound 0.00316 µM) was 66.9% [middle of 5 runs]. The viability, T/C (compound 0.01 µM) was 48.9% [middle of 5 runs], the viability, T/C (compound 0.0316 µM) was 35.8% [middle of 5 runs] and the viability, T/C (compound 0.1 µM) was 25.9% [middle of 5 runs]. For the same compound, the IC50 (curve of compound) was 9.42 nM [middle of 5 runs].
`CCNC(=O)CC1N=C(c2ccc(Cl)cc2)c2cc(OC)ccc2-n2c(C)nnc21` (stereo unspecified) + CNCc1ccccc1-c1csc(C(C)Nc2nc(C)nc3cc(OC)c(OC)cc23)c1 gave an IC50 [1] of 509 nM, an IC50 [2] of 388 nM and an IC50 [3] of 360 nM. It also gave an IC50 [4] of under 31.6 nM, an IC50 [5] of under 31.6 nM and a viability, T/C [6] of 108%. For the same compound, the viability, T/C [7] was 87.9%, the viability, T/C [8] was 56.1% and the viability, T/C [9] was 41.4%. The viability, T/C [10] was 32%, the viability, T/C [11] was 31.4% and the viability, T/C [12] was 105%. It also gave a viability, T/C [13] of 93%, a viability, T/C [14] of 53.3% and a viability, T/C [15] of 34.3%. For the same compound, the viability, T/C [16] was 28.6%, the viability, T/C [17] was 30.6% and the viability, T/C [18] was 99%. It also gave a viability, T/C [19] of 92.2%, a viability, T/C [20] of 51.8% and a viability, T/C [21] of 34.9%. It also gave a viability, T/C [22] of 32.5%, a viability, T/C [23] of 31.3% and a viability, T/C [24] of 0.37%. The viability, T/C [25] was 0.16%, the viability, T/C [26] was 0.27% and the viability, T/C [27] was 0.08%. The viability, T/C [28] was 0.08%, the viability, T/C [29] was 0.19% and the viability, T/C [30] was 0.15%. For the same compound, the viability, T/C [31] was 0.14%, the viability, T/C [32] was 0.12% and the viability, T/C [33] was 0.8%. It also gave a viability, T/C [34] of 0.13% and a viability, T/C [35] of 0.36%.
`O=C(c1cc(Cc2n[nH]c(=O)c3ccccc23)ccc1F)N1CCN(C(=O)C2CC2)CC1` was tested, and the viability, T/C (compound 0.0316 µM) was 99% [middle of 5 runs], the viability, T/C (compound 0.1 µM) was 95.1% [middle of 5 runs] and the viability, T/C (compound 0.316 µM) was 93.8% [middle of 5 runs]. For the same compound, the viability, T/C (compound 1 µM) was 94.8% [middle of 5 runs], the viability, T/C (compound 3.16 µM) was 89.3% [middle of 5 runs] and the viability, T/C (compound 10 µM) was 61% [middle of 5 runs]. For the same compound, the IC50 (curve of compound) was over 10000 nM.
With `CNCc1ccccc1-c1csc(C(C)Nc2nc(C)nc3cc(OC)c(OC)cc23)c1` (stereo unspecified) the viability, T/C (compound 0.1 µM) was 93.3% [middle of 17 runs], the viability, T/C (compound 0.316 µM) was 93.4% [middle of 17 runs] and the viability, T/C (compound 10 µM) was 0.16% [middle of 15 runs]. The IC50 (compound alone, run of 08/26/2021) was 1.68 µM [middle of 5 runs] and the IC50 (compound alone, run of 09/02/2021) was 1.82 µM [middle of 6 runs].
In the case of `COc1cc2nccc(Oc3ccc(NC(=O)C4(C(=O)Nc5ccc(F)cc5)CC4)cc3)c2cc1OC`, the viability, T/C (compound 0.0316 µM) is reported as 99.7% [middle of 5 runs], the viability, T/C (compound 0.1 µM) is reported as 98.8% [middle of 4 runs] and the viability, T/C (compound 0.316 µM) is reported as 103% [middle of 5 runs]. For the same compound, the viability, T/C (compound 1 µM) was 109% [middle of 5 runs] and the viability, T/C (compound 10 µM) was 39.7% [middle of 5 runs].
`COc1cc2nccc(Oc3ccc(NC(=O)C4(C(=O)Nc5ccc(F)cc5)CC4)cc3)c2cc1OC` + C=CC(=O)N1CCN(c2nc(=O)n(-c3c(C)ccnc3C(C)C)c3nc(-c4c(O)cccc4F)c(F)cc23)C(C)C1 was tested, and the IC50 [1] was 6550 nM, the IC50 [2] was 5780 nM and the IC50 [3] was 3980 nM. It also gave an IC50 [4] of 2500 nM, an IC50 [5] of 1240 nM and a viability, T/C [6] of 114%. It also gave a viability, T/C [7] of 122%, a viability, T/C [8] of 113% and a viability, T/C [9] of 124%. It also gave a viability, T/C [10] of 78.4%, a viability, T/C [11] of 33.5% and a viability, T/C [12] of 107%. It also gave a viability, T/C [13] of 111%, a viability, T/C [14] of 117% and a viability, T/C [15] of 108%. It also gave a viability, T/C [16] of 66.8%, a viability, T/C [17] of 34.7% and a viability, T/C [18] of 109%. For the same compound, the viability, T/C [19] was 119%, the viability, T/C [20] was 114% and the viability, T/C [21] was 112%. The viability, T/C [22] was 54.2%, the viability, T/C [23] was 32.9% and the viability, T/C [24] was 83.7%. For the same compound, the viability, T/C [25] was 109%, the viability, T/C [26] was 94.4% and the viability, T/C [27] was 75.4%. The viability, T/C [28] was 44.2%, the viability, T/C [29] was 20.9% and the viability, T/C [30] was 55.2%. The viability, T/C [31] was 64.1%, the viability, T/C [32] was 58.7% and the viability, T/C [33] was 53.9%. For the same compound, the viability, T/C [34] was 32.6% and the viability, T/C [35] was 10.4%.
`CC1COCCN1c1cc(-c2ccnn2C)c2ccnc(-c3ccn[nH]3)c2n1` (stereo unspecified) + CC1OCC2(CCN(c3cnc(Sc4ccnc(N)c4Cl)c(N)n3)CC2)C1N showed an IC50 [1] of 18.3 nM, an IC50 [2] of 16.1 nM and an IC50 [3] of 13.2 nM. For the same compound, the IC50 [4] was 13.9 nM, the IC50 [5] was 10.6 nM and the viability, T/C (second compound 0.1 µM, first compound 0.01 µM) was 75%. The viability, T/C [6] was 27.6%, the viability, T/C [7] was 7.87% and the viability, T/C [8] was 9.44%. It also gave a viability, T/C [9] of 14.9%, a viability, T/C [10] of 16.7% and a viability, T/C (second compound 0.316 µM, first compound 0.01 µM) of 67.2%. For the same compound, the viability, T/C [12] was 25.4%, the viability, T/C [13] was 6.51% and the viability, T/C [14] was 8.34%. It also gave a viability, T/C [15] of 12.3%, a viability, T/C [16] of 17.1% and a viability, T/C (second compound 1 µM, first compound 0.01 µM) of 56.6%. It also gave a viability, T/C [18] of 29%, a viability, T/C [19] of 7.13% and a viability, T/C [20] of 7.87%. It also gave a viability, T/C [21] of 11.1%, a viability, T/C [22] of 17.2% and a viability, T/C (second compound 3.16 µM, first compound 0.01 µM) of 59.9%. For the same compound, the viability, T/C [24] was 25.4%, the viability, T/C [25] was 7.05% and the viability, T/C [26] was 7.79%. It also gave a viability, T/C [27] of 10.5%, a viability, T/C [28] of 16.8% and a viability, T/C (second compound 10 µM, first compound 0.01 µM) of 51.3%. The viability, T/C [30] was 27.4%, the viability, T/C [31] was 7.9% and the viability, T/C [32] was 8.11%. It also gave a viability, T/C [33] of 11.4% and a viability, T/C [34] of 15.6%.
`CC(=O)Nc1cccc(-n2c(=O)n(C3CC3)c(=O)c3c(Nc4ccc(I)cc4F)n(C)c(=O)c(C)c32)c1` was tested, and the viability, T/C (compound 0.0001 µM) was 77.7% [middle of 5 runs], the viability, T/C (compound 0.000316 µM) was 47.2% [middle of 5 runs] and the viability, T/C (compound 0.001 µM) was 36.5% [middle of 5 runs]. The viability, T/C (compound 0.00316 µM) was 29.1% [middle of 5 runs], the viability, T/C (compound 0.01 µM) was 24.1% [middle of 5 runs] and the viability, T/C (compound 0.0316 µM) was 17.4% [middle of 4 runs]. For the same compound, the IC50 (curve of compound) was 0.337 nM [middle of 5 runs].
